Measured values published in patent US9278994B2, “Short antimicrobial lipopeptides” (Helix BioMedix Inc., priority 2012, dated 2016).
In brackets after ≈: the same amount, converted by molar mass. Where a SMILES comes first, the peptide text is derived from it. [ ]: non-standard residue; d: D form. The star is where a group is joined. Palmitoyl = CCCCCCCCCCCCCCCC(=O)*

Key:
C. albicans 105 = system: C. albicans 105
Protocol: (§1) We conducted the minimal inhibitory concentration (MIC) determination using CLSI (Clinical and Laboratory standard Institute) recommended standard protocol for antimicrobials (Methods for Dilution Antimicrobial Susceptibility Tests for Bacteria That Grow Aerobically; Approved Standard—Ninth Edition).
(§2) 2. Bacterial strains and culture conditions. E. coli UB1005, S. aureus SAP0017 (MRSA) and C. albicans 105 were grown in Mueller Hinton (MH) (Difco, BD Biosciences, MD) agar plates and broth (2 g of beef extract, 17.5 g of acid hydrolysis of casein and 1.5 g of starch per liter) at 37° C. unless otherwise indicated. Bacteria from frozen stock were subcultured onto freshly made MH agar plates prior to susceptibility testing. For P. acnes, the bacterium was grown in BBL™ Brain-Heart infusion (Becton, Dickinson & Company, Sparks Md.) broth or agar plates at 37° C. in anaerobic condition generated using a anaerobic jar and AnaeroGen™ (Oxoid, Basingstoke, Hampshire, England).
(§3) 3. […] The minimal inhibitory concentration (MIC) of each peptide was determined using modified CLSI microtiter broth dilution assay (Methods for Dilution Antimicrobial Susceptibility Tests for Bacteria That Grow Aerobically; Approved Standard—Ninth Edition). An inoculum of 10^5-10^6 colony forming units (CFU)/ml was used or 10^4 CFU/ml for yeast. The MIC value was taken as the lowest peptide concentration at which more than 90% of microbial growth was inhibited after 15 to 20 h of incubation at 37° C. For P. acnes, the incubation was kept under anaerobic condition at 37° C. for 2 weeks before MIC was determined Kill kinetics was performed using a given concentration (about 2-5-fold MIC) of peptide mixed with indicator microorganism. After appropriate dilution the cells were plated on agar plates after defined time intervals and incubated at 37° C. overnight. In the case of P. acnes an extended incubation period was required. The CFU was counted and plotted as survival of bacteria after peptide treatment over time, which indicates the effectiveness of a peptide to kill a microbe.

E. coli UB1005 = system: E. coli UB1005
Protocol: as §1, §2, §3

S. aureus SAP0017 (MRSA) [1] = system: S. aureus SAP0017 (MRSA)
Protocol: as §1, §2, §3

P. acnes = type: cell-based, Propionibacterium acnes
Protocol: as §2, §3

[2] = system: EpiDerm (EPI-200) skin tissue; experiment: Skin tissue toxicity, EpiDerm skin model with MTT assay; type: cell-based; settings: tissue viability (MTT), treated 20 hr
Protocol: 4. Skin tissue toxicity determination. Skin toxicity and compatibility was determined using EpiDerm (EPI-200) skin tissue and MTT Kit (MTT-100) (MatTek, Ashland, Mass.) according to the manufacture's instruction. 1% Triton X-100 and PBS were used as positive (toxic) and negative (non-toxic) control, respectively.
Potential for dermal irritancy of the lipodipeptides was tested using EpiDerm™ Skin Model (MatTek, Ashland, Mass.) in combination with a modified MTT assay. […] EpiDerm™ consists of organized basal, spinous, granular, and cornified layers analogous to those found in vivo. The tissues were treated with each compound at desired concentration for 20 hr.

S. aureus SAP0017 (MRSA) [3] = type: cell-based, Staphylococcus aureus; settings: for logs of S. aureus eradicated in a kill assay: SAP0017
Protocol: as §3

P. acnes ATCC11827 = experiment: Kill kinetics in PBS; type: cell-based, Propionibacterium acnes; settings: detection limit 10 CFU/ml
Protocol: as §3

[4] = system: histamine induced IL-6 expression; experiment: Anti-inflammatory activity in keratinocytes (data not shown); type: cell-based; settings: human skin keratinocytes
Description: We modified both peptides via N-terminal acetylation with lipids of various lengths to the alpha amino group of KPV and KdPT.

human dermal fibroblasts = experiment: Gene profiling (PCR array of extracellular matrix adhesion molecule genes); type: cell-based; settings: 5 μg/ml, 24 h; up (+) or down (−) regulation
Protocol: 5. Gene profiling analysis. The 84 genes encoding extracellular matrix adhesion molecules in human dermal fibroblasts were analyzed using PCR arrays conducted by Sunny Biodiscovery, Inc (Santa Paula, Calif.). Human dermal fibroblasts were from Zen-Bio, Research Triangle Park, N.C. (cat. #DF-F, lot #DFMF112410). […] At the end of the incubation cells were observed under the inverted Nikon TS microscope.
At the end of the incubation period cells were preserved in RNAlater solution (Ambion, Austin, Tex.) for 6 h. RNA was extracted and purified with NucleoSpin RNA II kit from Machery-Nagel, Bethleem, Pa.). Purified total RNA was assessed at 230 nm, 260 nm and 280 nm with Agilent HP-8452A diode array spectrophotometer. The concentration of RNA was equalized across the samples and the expression of genes of interest was measured by real-time quantitative PCR with BioRad iCycler iQ Detection System using PCR arrays PAHS-013A (www.sabiosciences.com/rt_pcr_product/HTML/PAHS-013A.html), with 1st strand synthesis kit, SYBR Green master mix and PCR running conditions from Qiagen (formerly SA Biosciences). Efficiency ΔΔCt method was used for quantification of results, after the normalization of gene expression to 5 housekeeping genes carried with the RT2 Profiler PCR Array Data Analysis version 3.5 software.

[5] = system: P. acnes, S. aureus, E. coli and C. albicans; experiment: MIC / antimicrobial activity; type: cell-based; settings: summary of MIC results of Table 1
Protocol: as §2, §3

SMILES | MIC C. albicans (C. albicans 105) [µg/mL] | MIC E. coli (E. coli UB1005) [µg/mL] | MIC S. aureus (S. aureus SAP0017 (MRSA) [1]) [µg/mL] | MIC P. acnes (P. acnes) [µg/mL] | Toxicity EpiDerm [2] [µg/mL] | logs of S. aureus eradicated in a kill assay (S. aureus SAP0017 (MRSA) [3]) | further results
CC(C)[C@H](NC(=O)[C@@H]1CCCN1C(=O)[C@@H](N)CCCCN)C(=O)O [HB2067, KPV-OH, reference compound] (H-Lys-Pro-Val-OH) | >2000 | >2000 | >2000 | >2000 | >2000 | – | –
CC(C)[C@H](NC(=O)[C@@H]1CCCN1C(=O)[C@@H](N)CCCCN)C(N)=O [HB2068, KPV-NH2, reference compound] (H-Lys-Pro-Val-NH2) | >2000 | >2000 | >2000 | >2000 | >2000 | – | –
C[C@@H](O)[C@H](NC(=O)[C@H]1CCCN1C(=O)[C@@H](N)CCCCN)C(N)=O [HB2089, K-dPT-NH2, reference compound] (H-Lys-[dP]-Thr-NH2) | >2000 | >2000 | >2000 | >2000 | >2000 | – | –
C[C@@H](O)[C@H](NC(=O)[C@H]1CCCN1C(=O)[C@@H](N)CCCCN)C(=O)O [HB2090, K-dPT-OH, reference compound] (H-Lys-[dP]-Thr-OH) | >2000 | >2000 | >2000 | >2000 | >2000 | – | –
CCCCCCCCCCCCCCCC(=O)N[C@@H](CCCCN)C(=O)N1CCC[C@@H]1C(=O)N[C@H](C(N)=O)[C@@H](C)O [HB2178, Pal-K-dPT-NH2] (Palmitoyl-Lys-[dP]-Thr-NH2) | 16 (≈ 27.5 µM) | – | – | 2 (≈ 3.44 µM) | >2000 | 5-6 logs | survival of microbes (CFU/ml), 0 hr (S. aureus SAP0017 (MRSA) [3]; S. aureus in PBS, 0 hr, detection limit 10 CFU/ml): 23050000 CFU/ml; survival of microbes (CFU/ml), 20 min (S. aureus SAP0017 (MRSA) [3]; S. aureus in PBS, 20 min, detection limit 10 CFU/ml): <10 CFU/ml; survival of microbes (CFU/ml), 1 hr (S. aureus SAP0017 (MRSA) [3]; S. aureus in PBS, 1 hr, detection limit 10 CFU/ml): <10 CFU/ml; survival of microbes (CFU/ml), 2 hr (S. aureus SAP0017 (MRSA) [3]; S. aureus in PBS, 2 hr, detection limit 10 CFU/ml): <10 CFU/ml; survival of microbes (CFU/ml), 3 hr (S. aureus SAP0017 (MRSA) [3]; S. aureus in PBS, 3 hr, detection limit 10 CFU/ml): <10 CFU/ml; survival of microbes (CFU/ml), 0 hr (P. acnes ATCC11827; 0 hr): 750000 CFU/ml; survival of microbes (CFU/ml), 20 min (P. acnes ATCC11827; 20 min): 20 CFU/ml; survival of microbes (CFU/ml), 1 hr (P. acnes ATCC11827; 1 hr): <10 CFU/ml; survival of microbes (CFU/ml), 2 hr (P. acnes ATCC11827; 2 hr): <10 CFU/ml; survival of microbes (CFU/ml), 3 hr (P. acnes ATCC11827; 3 hr): <10 CFU/ml
CCCCCCCCCCCCCCCC(=O)N[C@@H](CCCCN)C(=O)N1CCC[C@H]1C(=O)N[C@H](C(N)=O)C(C)C [HB2180, Pal-KPV-NH2] (Palmitoyl-Lys-Pro-Val-NH2) | 16 (≈ 27.6 µM) | 128 (≈ 221 µM) | 8 (≈ 13.8 µM) | 1 to 2 | >2000 | 5-6 logs | –
CCCCCCCCCCCCCCCC(=O)N[C@@H](CCCCN)C(=O)N1CCC[C@H]1C(N)=O [HB2202, Pal-KP-NH2] (Palmitoyl-Lys-Pro-NH2) | 16 (≈ 33.3 µM) | 64 (≈ 133 µM) | 16 (≈ 33.3 µM) | 1 (≈ 2.08 µM) | >2000 | – | –
CCCCCCCCCCCCCCCC(=O)N[C@@H](CCCCN)C(=O)N1CCC[C@@H]1C(N)=O [HB2203, Pal-K-dP-NH2] (Palmitoyl-Lys-[dP]-NH2) | 16 (≈ 33.3 µM) | 128 (≈ 266 µM) | 8 (≈ 16.6 µM) | 1 to 2 | >2000 | – | –
CCCCCCCCCCCCCCCC(=O)N[C@@H](CCCCN)C(=O)N1CCC[C@H]1C(=O)N[C@@H](C)C(N)=O [HB2208, Pal-KPA-NH2] (Palmitoyl-Lys-Pro-Ala-NH2) | 16 (≈ 29 µM) | 128 (≈ 232 µM) | 16 (≈ 29 µM) | 1 (≈ 1.81 µM) | >2000 | 5-6 logs | –
CCCCCCCCCCCCCCCC(=O)N[C@@H](CCCCN)C(=O)N1CCC[C@H]1C(=O)N[C@@H](CC(C)C)C(N)=O [HB2209, Pal-KPL-NH2] (Palmitoyl-Lys-Pro-Leu-NH2) | 32 (≈ 53.9 µM) | >2000 | 16 (≈ 26.9 µM) | 4 to 8 | >2000 | 5-6 logs | –
NCCCC[C@H](N)C(=O)N1CCC[C@H]1C(N)=O [HB2230, KP-NH2] (H-Lys-Pro-NH2; N-terminus assumed) | >2000 | >2000 | >2000 | >2000 | – | – | anti-inflammatory activity against histamine induced IL-6 expression [4]: moderate anti-inflammatory activity
NCCCC[C@H](N)C(=O)N1CCC[C@@H]1C(N)=O [HB2231, K-dP-NH2] (H-Lys-[dP]-NH2; N-terminus assumed) | >2000 | >2000 | >2000 | >2000 | – | – | anti-inflammatory activity against histamine induced IL-6 expression [4]: moderate anti-inflammatory activity
CCCCCCCCCCCCCCCC(=O)N[C@@H](CCCCN)C(=O)N[C@@H](CCCNC(=N)N)C(N)=O [HB2259, Pal-KR-NH2] (Palmitoyl-Lys-Arg-NH2) | 16 (≈ 29.6 µM) | 8 (≈ 14.8 µM) | 2 (≈ 3.71 µM) | <1 | – | – | Fold change (peptide vs. PBS control) ADAMTS (human dermal fibroblasts): 2.4284 Fold change; Fold change (peptide vs. PBS control) CDH1 (human dermal fibroblasts): 1.0718 Fold change; Fold change (peptide vs. PBS control) COL1A1 (human dermal fibroblasts): −1.8661 Fold change; Fold change (peptide vs. PBS control) COL8A1 (human dermal fibroblasts): −2.5847 Fold change; Fold change (peptide vs. PBS control) HAS1 (human dermal fibroblasts): −3.0314 Fold change; Fold change (peptide vs. PBS control) ITGA2 (human dermal fibroblasts): 1.3195 Fold change; Fold change (peptide vs. PBS control) ITGA7 (human dermal fibroblasts): −1.8661 Fold change; Fold change (peptide vs. PBS control) ITGB2 (human dermal fibroblasts): 2.1435 Fold change; Fold change (peptide vs. PBS control) KAL1 (human dermal fibroblasts): 1.2311 Fold change; Fold change (peptide vs. PBS control) MMP1 (human dermal fibroblasts): 1.1487 Fold change; Fold change (peptide vs. PBS control) MMP8 (human dermal fibroblasts): 2.1435 Fold change; Fold change (peptide vs. PBS control) MMP9 (human dermal fibroblasts): −2.1435 Fold change; Fold change (peptide vs. PBS control) MMP10 (human dermal fibroblasts): 1.6245 Fold change; Fold change (peptide vs. PBS control) MMP13 (human dermal fibroblasts): −3.249 Fold change; Fold change (peptide vs. PBS control) MMP14 (human dermal fibroblasts): −2.4623 Fold change; Fold change (peptide vs. PBS control) SELE (human dermal fibroblasts): 1.0718 Fold change; Fold change (peptide vs. PBS control) THBS3 (human dermal fibroblasts): −1.6245 Fold change; antimicrobial activity (in words) [5]: broad spectrum antimicrobial activity
